Data: US9157905B2, “Method for identifying oncogene, method for establishing oncogene-expressing cell, and method of screening oncogene targeting drug” (FUJIREBIO INC., priority 2010, dated 2015)

Key:
[1] = test system: PDGFRα V561D gene-introduced cells (PC-9); assay: MTS assay of living cells, PDGFRα V561D gene-introduced PC-9 cells cultured 72 hours with drug; type: cell-based, human
Procedure: (§1) PC-9 cells or cells obtained by introducing the oncogene, the PDGFRα V561D gene into PC-9 cells in Example 4 were seeded in a 96-well plate. The cells were cultured for 72 hours in medium containing gefitinib at various concentrations, and then living cells were quantified by an MTS assay.
The cells obtained by introducing the PDGFRα V561D gene into PC-9 cells in Example 4 were seeded in a 96-well plate. The cells were cultured in medium containing a PDGFRα inhibitor, imatinib at various concentrations or medium containing 1 μM gefitinib and imatinib at various concentrations for 72 hours, and then living cells were quantified by the MTS assay.

PC-9 cells = assay: MTS assay of living cells, PC-9 cells cultured 72 hours with drug; type: cell-based, human; conditions: gefitinib at various concentrations, FIG. 5
Procedure: as §1

Row | Structure (SMILES) | proliferation of the PDGFRα V561D gene-introduced cells ([1]; imatinib at various concentrations in the presence of 1 μM gefitinib, FIG. 6) | proliferation of PC-9 cells (PC-9 cells) | proliferation of the PDGFRα V561D gene-introduced cells ([1]; gefitinib at various concentrations, FIG. 5) | proliferation of the PDGFRα V561D gene-introduced cells ([1]; in the presence of 1 μM gefitinib (medium with imatinib at various concentrations), FIG. 6)
1 | Cc1ccc(NC(=O)c2ccc(CN3CCN(C)CC3)cc2)cc1Nc1nccc(-c2cccnc2)n1 [imatinib] | inhibited by the PDGFRα inhibitor, imatinib in a dose dependent manner |  |  | 
2 | COc1cc2ncnc(Nc3ccc(F)c(Cl)c3)c2cc1OCCCN1CCOCC1 [gefitinib] |  | inhibited by gefitinib in a dose dependent manner | not inhibited | inhibited in the presence of 1 μM gefitinib
